Converted amounts (≈) assume the structure as drawn.
Columns and labels:
Assay type in all cases: functional
[1] = system: Candida albicans; assay: Antifungal activity against Candida albicans ATCC 44859 after 24 hrs by broth microdilution assay; conditions: Candida albicans, ATCC 44859, 24 h
[2] = system: Candida albicans; assay: Antifungal activity against Candida albicans ATCC 44859 after 48 hrs by broth microdilution assay; conditions: Candida albicans, ATCC 44859, 48 h
[3] = system: Candida tropicalis; assay: Antifungal activity against Candida tropicalis 159 after 24 hrs by broth microdilution assay; conditions: Candida tropicalis, 159, 24 h
[4] = system: Candida tropicalis; assay: Antifungal activity against Candida tropicalis 159 after 48 hrs by broth microdilution assay; conditions: Candida tropicalis, 159, 48 h
[5] = system: Pichia kudriavzevii; assay: Antifungal activity against Candida krusei E28 after 24 hrs by broth microdilution assay; conditions: Pichia kudriavzevii, E28, 24 h
[6] = system: Pichia kudriavzevii; assay: Antifungal activity against Candida krusei E28 after 48 hrs by broth microdilution assay; conditions: Pichia kudriavzevii, E28, 48 h
[7] = system: Nakaseomyces glabratus; assay: Antifungal activity against Candida glabrata 20/I after 24 hrs by broth microdilution assay; conditions: Nakaseomyces glabratus, 20/I, 24 h
[8] = system: Nakaseomyces glabratus; assay: Antifungal activity against Candida glabrata 20/I after 48 hrs by broth microdilution assay; conditions: Nakaseomyces glabratus, 20/I, 48 h
[9] = system: Trichosporon asahii; assay: Antifungal activity against Trichosporon asahii 1188 after 24 hrs by broth microdilution assay; conditions: Trichosporon asahii, 1188, 24 h
[10] = system: Trichosporon asahii; assay: Antifungal activity against Trichosporon asahii 1188 after 48 hrs by broth microdilution assay; conditions: Trichosporon asahii, 1188, 48 h
[11] = system: Aspergillus fumigatus; assay: Antifungal activity against Aspergillus fumigatus 231 after 24 hrs by broth microdilution assay; conditions: Aspergillus fumigatus, 231, 24 h
[12] = system: Aspergillus fumigatus; assay: Antifungal activity against Aspergillus fumigatus 231 after 48 hrs by broth microdilution assay; conditions: Aspergillus fumigatus, 231, 48 h
[13] = system: Lichtheimia corymbifera; assay: Antifungal activity against Absidia corymbifera 272 after 24 hrs by broth microdilution assay; conditions: Lichtheimia corymbifera, 272, 24 h
[14] = system: Lichtheimia corymbifera; assay: Antifungal activity against Absidia corymbifera 272 after 48 hrs by broth microdilution assay; conditions: Lichtheimia corymbifera, 272, 48 h
[15] = system: Trichophyton mentagrophytes; assay: Antifungal activity against Trichophyton mentagrophytes 445 after 72 hrs by broth microdilution assay; conditions: Trichophyton mentagrophytes, 445, 72 h
[16] = system: Trichophyton mentagrophytes; assay: Antifungal activity against Trichophyton mentagrophytes 445 after 120 hrs by broth microdilution assay; conditions: Trichophyton mentagrophytes, 445, 120 h

Row | Structure (SMILES) | MIC [1] [µM] | MIC [2] [µM] | MIC [3] [µM] | MIC [4] [µM] | MIC [5] [µM] | MIC [6] [µM] | MIC [7] [µM] | MIC [8] [µM] | MIC [9] [µM] | MIC [10] [µM] | MIC [11] [µM] | MIC [12] [µM] | MIC [13] [µM] | MIC [14] [µM] | MIC [15] [µM] | MIC [16] [µM]
1 | Cc1ccc(C(=S)NCc2ccc(Cl)cc2)c(O)c1 | > 500 | > 500 | > 500 | > 500 | > 500 | > 500 | > 500 | > 500 | > 500 | > 500 | > 500 | > 500 | > 500 | > 500 | > 500 | > 500
2 | Cc1ccc(C(=S)NCc2ccc(C(C)(C)C)cc2)c(O)c1 | > 500 | > 500 | > 500 | > 500 | > 500 | > 500 | > 500 | > 500 | > 500 | > 500 | > 500 | > 500 | > 500 | > 500 | > 500 | > 500
3 | OC(Cn1cncn1)(Cn1cncn1)c1ccc(F)cc1F [FLUCONAZOLE] | 1 (≈ 0.306 µg/mL) | 2 (≈ 0.613 µg/mL) | 3 (≈ 0.919 µg/mL) | 5 (≈ 1.53 µg/mL) | > 50 | > 50 | 22 (≈ 6.74 µg/mL) | > 50 | 4 (≈ 1.23 µg/mL) | 9 (≈ 2.76 µg/mL) | > 50 | > 50 | > 50 | > 50 | 17 (≈ 5.21 µg/mL) | 26 (≈ 7.96 µg/mL)

Reference: ChEMBL document CHEMBL1208720, “N-Benzylsalicylthioamides as novel compounds with promising antimycotic activity” (2010)
